Measurements reported in the SangsterLogP compilation.
*1 amine or outer side, *2 acyl side, *3 side chain or, on linkers, in order; H or OH if unused. Positions of bridges follow the written chain, without caps; N, C: chain ends. Where a SMILES comes first, the peptide text is derived from it. Residues, ends and D or L forms follow the SMILES beside them. [ ]: non-standard residue; d: D form. The star is where a group is joined. X1 = CC(C)C[C@H](N[*:1])[C@@H](O)C[C@H](C(=O)[*:2])C(C)C; NMeH = CN[C@@H](Cc1c[nH]cn1)C(=O)O; NHCH2(2-pyridyl) = c1ccc(CN*)nc1; Boc = CC(C)(C)OC(=O)*

What was measured:
[1] = not given; remark: listed apart in the source
[2] = not given; remark: listed apart in the source
[3] = not given; remark: listed apart in the source
[4] = not given; remark: listed apart in the source
[5] = not given; remark: listed apart in the source
[6] = not given; remark: listed apart in the source
[7] = method code SF, from Moerlein, M.; Dischino, D.; Raymond, N.; Weitl, L.; Welch, J. (1982). Factors affecting the cerebral uptake of gallium complexes. J Labelled Comp Radiopharm, 19(11-12)1421-1422.; conditions: pH 7.0
[8] = method code AS, from DOI: 10.1081/jlc-120022394
[9] = not given; remark: listed apart in the source
[10] = method code SF-AS, from DOI: 10.1021/jm0401006, PMID: 15481980; conditions: pH 7.4
[11] = not given; remark: listed apart in the source

Q: With `Cc1ccccc1Nc1nc2ccc(C(=O)NC(CCCCNC(=O)C=Cc3cccnc3)C(=O)NC(CCCC(=O)O)C(=O)NC3(C(N)=O)CCCCC3)cc2[nH]1` (configuration not stated) as the compound, how does the logP read?
A: 1.88

Q: For `CC[C@H](C)[C@@H]1NC(=O)[C@H](Cc2ccc(O)cc2)NC(=O)[C@@H](N)CSSC[C@@H](C(=O)N2CCC[C@H]2C(=O)N[C@@H](CCCN=C(N)N)C(=O)NCC(N)=O)NC(=O)[C@H](CC(N)=O)NC(=O)[C@H](CCC(N)=O)NC1=O` (H-CYIQNCPRG-NH2; disulfide 1-6), which logP [1] is on record?
A: -1.62

Q: With `C=CC[C@@H]1/C=C(\C)C[C@H](C)C[C@H](OC)[C@H]2O[C@@](O)(C(=O)C(=O)N3CCCC[C@H]3C(=O)O[C@H](/C(C)=C/[C@@H]3CC[C@@H](O)[C@H](OC)C3)[C@H](C)[C@@H](O)CC1=O)[C@H](C)C[C@@H]2OC` as the compound, how does the logP [2] read?
A: 3.3

Q: For `CCCC(=O)O[C@H]1[C@H](C)O[C@@H](O[C@H]2[C@H](N(C)C)[C@@H](O)[C@H](O[C@H]3[C@@H](CC=O)C[C@@H](C)[C@@H](O)/C=C/C=C/C[C@@H](C)OC(=O)C[C@@H](O)[C@@H]3OC)O[C@@H]2C)C[C@@]1(C)OC(=O)CC`, which logP [3] is on record?
A: 3.08

Q: Which logP [4] does the source give for `CCC(C(=O)OCc1ccc(COC(=O)C(CC)C(COC(=O)c2ccccc2)Cc2cncn2C)cc1)C(COC(=O)c1ccccc1)Cc1cncn1C` (configuration not stated) here?
A: 6.37

Q: With `CC[C@H](C)[C@H](NC(=O)[C@@H](C[C@H](O)[C@H](CC(C)C)NC(=O)[C@H](Cc1cnc[nH]1)N(C)C(=O)[C@H](Cc1ccccc1)NC(=O)[C@@H]1CCCN1C(=O)OC(C)(C)C)C(C)C)C(=O)NCc1ccccn1` (Boc-PF[NMeH][X1]I-{NHCH2(2-pyridyl)}) as the compound, how does the logP [5] read?
A: 4.2

Q: Which logP [6] does the source give for `CO[C@H]1C=CO[C@@]2(C)Oc3c(C)c(O)c4c(c3C2=O)C(=O)/C(=C/NN2CCN(C3CCCC3)CC2)C(=C4O)NC(=O)/C(C)=C\C=C/[C@H](C)[C@H](O)[C@@H](C)[C@@H](O)[C@H](C)[C@H](OC(C)=O)[C@H]1C` here?
A: 1.24

Q: Which logD [7] does the source give for `CCCCCCCCN(CCCCN(CCCN(CCCCCCCC)C(=O)c1cccc(O)c1O)C(=O)c1cccc(O)c1O)C(=O)c1cccc(O)c1O` here?
A: 0.51

Q: For `CCOC(=O)C(=Cc1ccc(Cl)cc1)NC=O`, which logP [8] is on record?
A: 2.65

Q: Which logP [9] does the source give for `COC(=O)[C@H](Cc1ccccc1)NC(=O)[C@H](Cc1ccccc1)NC(=O)[C@@H](NC(=O)[C@H](CC(C)C)NC(=O)[C@H](CCCCNC(=O)OCc1ccccc1)NC(=O)OC(C)(C)C)C(C)C` here?
A: 7.62

Q: Which logD [10] does the source give for `CCOC(=O)c1cnc2c(c(C)nn2C)c1Nc1ccc(OC(C)=O)cc1` here?
A: 1.67

Q: With `COc1ccc(C2(O)OC(=O)C(c3ccc4c(c3)OCO4)=C2Cc2cc(OC)c(OC)c(OCCOCCOCCOCCOCc3cn(C4OC(CO)C(O)C(O)C4F)nn3)c2)cc1` (configuration not stated) as the compound, how does the logP [11] read?
A: -0.4
